The source of these data is US20260226493A1, “HERBICIDE RESISTANT PLANTS” (SYNGENTA CROP PROTECTION AG, priority 2023, published 2026).

Holding throughout (assay): BIO3-BIO1 mutant enzyme activity in the presence of herbicide, percentage inhibition (fluorometric DAPA assay)
Common to all, as to assay type: biochemical
What all share (conditions): read-out: percentage inhibition

For assay [1], the target named is T1, Arabidopsis thaliana BIO3-BIO1 (BioDA) mutants (Arabidopsis thaliana, UniProt B0F481, DEL513-513).
T1 construct: with the predicted N-terminal mitochondrial transit peptide removed; 6xHis-tag (N); thrombin cleavage site (N); made in house; host or cells: E. coli BL21 (DE3) bioA
T1 sequence (B0F481 other isoform, or with tags, fused parts or gaps DEL513-513): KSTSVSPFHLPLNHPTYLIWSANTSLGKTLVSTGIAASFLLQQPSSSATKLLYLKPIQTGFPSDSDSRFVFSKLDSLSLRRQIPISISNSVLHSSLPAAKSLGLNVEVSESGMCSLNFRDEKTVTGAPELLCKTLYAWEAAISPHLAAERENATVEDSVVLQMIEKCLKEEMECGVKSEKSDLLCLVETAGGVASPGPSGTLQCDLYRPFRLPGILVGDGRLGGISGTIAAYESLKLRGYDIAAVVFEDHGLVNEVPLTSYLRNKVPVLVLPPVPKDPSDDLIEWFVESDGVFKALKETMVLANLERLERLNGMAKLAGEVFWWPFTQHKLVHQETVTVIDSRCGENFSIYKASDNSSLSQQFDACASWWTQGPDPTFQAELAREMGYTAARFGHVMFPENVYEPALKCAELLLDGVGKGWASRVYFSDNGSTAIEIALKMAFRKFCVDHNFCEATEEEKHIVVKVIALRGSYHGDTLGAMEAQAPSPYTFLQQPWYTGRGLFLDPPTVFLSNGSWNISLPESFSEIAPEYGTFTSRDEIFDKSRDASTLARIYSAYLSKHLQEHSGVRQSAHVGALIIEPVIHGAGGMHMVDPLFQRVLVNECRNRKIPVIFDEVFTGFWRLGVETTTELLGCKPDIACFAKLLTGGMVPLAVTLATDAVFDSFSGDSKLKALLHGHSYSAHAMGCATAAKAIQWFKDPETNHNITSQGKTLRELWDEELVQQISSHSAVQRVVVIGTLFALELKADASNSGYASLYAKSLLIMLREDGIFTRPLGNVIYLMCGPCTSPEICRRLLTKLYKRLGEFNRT
In short, it runs like this:
(§1)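 Percentage inhibition compares activity at one of three herbicide concentrations against DMSO, from o-phthalaldehyde-derivatised DAPA fluorescence (ex 410, em 470 nm). Purified N-His BIO3-BIO1 variants (50 nM, E. coli-expressed) saw herbicide 10 min at 20 °C in pH 8.6 EPPS buffer, then 20 μM KAPA plus 100 μM spermidine for 75 min at 20 °C.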

The target in assay [2] is T2, Arabidopsis thaliana BIO3-BIO1 (BioDA) mutants (Arabidopsis thaliana, UniProt B0F481, G700S).
T2 construct: with the predicted N-terminal mitochondrial transit peptide removed; 6xHis-tag (N); thrombin cleavage site (N); made in house; host or cells: E. coli BL21 (DE3) bioA
T2 sequence (B0F481 23-833 G700S): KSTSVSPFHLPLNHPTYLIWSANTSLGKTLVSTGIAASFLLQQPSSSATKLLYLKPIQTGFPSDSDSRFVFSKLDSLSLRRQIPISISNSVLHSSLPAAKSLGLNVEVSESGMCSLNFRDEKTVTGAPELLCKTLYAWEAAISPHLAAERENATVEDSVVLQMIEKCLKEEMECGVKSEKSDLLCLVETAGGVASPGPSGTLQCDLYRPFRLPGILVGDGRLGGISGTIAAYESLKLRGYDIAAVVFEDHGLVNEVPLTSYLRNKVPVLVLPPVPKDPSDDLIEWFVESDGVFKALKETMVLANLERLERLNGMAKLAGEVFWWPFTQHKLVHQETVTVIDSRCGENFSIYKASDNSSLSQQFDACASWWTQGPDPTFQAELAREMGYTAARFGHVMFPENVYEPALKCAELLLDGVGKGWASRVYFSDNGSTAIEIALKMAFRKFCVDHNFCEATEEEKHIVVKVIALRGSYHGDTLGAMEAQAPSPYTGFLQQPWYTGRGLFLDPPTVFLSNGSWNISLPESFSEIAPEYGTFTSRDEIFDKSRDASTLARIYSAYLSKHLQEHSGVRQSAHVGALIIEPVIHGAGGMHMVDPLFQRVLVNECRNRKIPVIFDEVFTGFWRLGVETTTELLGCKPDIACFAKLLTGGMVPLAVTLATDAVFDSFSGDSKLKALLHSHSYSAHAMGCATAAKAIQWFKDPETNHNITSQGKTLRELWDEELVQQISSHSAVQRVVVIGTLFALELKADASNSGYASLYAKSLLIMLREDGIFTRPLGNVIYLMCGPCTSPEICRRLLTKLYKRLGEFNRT
In short, it runs like this:
as §1

The target of assay [3] is T3, Arabidopsis thaliana BIO3-BIO1 (BioDA) mutants (Arabidopsis thaliana, UniProt B0F481, P508T).
T3 construct: with the predicted N-terminal mitochondrial transit peptide removed; 6xHis-tag (N); thrombin cleavage site (N); made in house; host or cells: E. coli BL21 (DE3) bioA
T3 sequence (B0F481 23-833 P508T): as the sequence (B0F481 23-833 G700S) above, with P486T, S678G counted along it
In a few lines: as §1

Assay [4] has as its target T4, Arabidopsis thaliana BIO3-BIO1 (BioDA) mutants (Arabidopsis thaliana, UniProt B0F481, S509E).
T4 construct: with the predicted N-terminal mitochondrial transit peptide removed; 6xHis-tag (N); thrombin cleavage site (N); made in house; host or cells: E. coli BL21 (DE3) bioA
In short, it runs like this: as §1

Assay [5] addresses T5, Arabidopsis thaliana BIO3-BIO1 (BioDA) mutants (Arabidopsis thaliana, UniProt B0F481, S509G).
T5 construct: with the predicted N-terminal mitochondrial transit peptide removed; 6xHis-tag (N); thrombin cleavage site (N); made in house; host or cells: E. coli BL21 (DE3) bioA
In a few lines: as §1

Assay [6] addresses T6, Arabidopsis thaliana BIO3-BIO1 (BioDA) mutants (Arabidopsis thaliana, UniProt B0F481, S509H).
T6 construct: with the predicted N-terminal mitochondrial transit peptide removed; 6xHis-tag (N); thrombin cleavage site (N); made in house; host or cells: E. coli BL21 (DE3) bioA
In a few lines: as §1

Assay [7] concerns the target T7, Arabidopsis thaliana BIO3-BIO1 (BioDA) mutants (Arabidopsis thaliana, UniProt B0F481, S509T).
T7 construct: with the predicted N-terminal mitochondrial transit peptide removed; 6xHis-tag (N); thrombin cleavage site (N); made in house; host or cells: E. coli BL21 (DE3) bioA
In a few lines:
as §1

Assay [8] deals with T8, Arabidopsis thaliana BIO3-BIO1 (BioDA) mutants (Arabidopsis thaliana, UniProt B0F481, T512V).
T8 construct: with the predicted N-terminal mitochondrial transit peptide removed; 6xHis-tag (N); thrombin cleavage site (N); made in house; host or cells: E. coli BL21 (DE3) bioA
T8 sequence (B0F481 23-833 T512V): as the sequence (B0F481 23-833 G700S) above, with T490V, S678G counted along it
In short, it runs like this: as §1

The target of assay [9] is T9, Arabidopsis thaliana BIO3-BIO1 (BioDA) mutants (Arabidopsis thaliana, UniProt B0F481, V354L).
T9 construct: with the predicted N-terminal mitochondrial transit peptide removed; 6xHis-tag (N); thrombin cleavage site (N); made in house; host or cells: E. coli BL21 (DE3) bioA
T9 sequence (B0F481 23-833 V354L): as the sequence (B0F481 23-833 G700S) above, with V332L, S678G counted along it
In a few lines: as §1

In assay [10] the target is T10, Arabidopsis thaliana BIO3-BIO1 (BioDA) mutants (Arabidopsis thaliana, UniProt B0F481, Y511I).
T10 construct: with the predicted N-terminal mitochondrial transit peptide removed; 6xHis-tag (N); thrombin cleavage site (N); made in house; host or cells: E. coli BL21 (DE3) bioA
T10 sequence (B0F481 23-833 Y511I): as the sequence (B0F481 23-833 G700S) above, with Y489I, S678G counted along it
In a few lines:
as §1

For assay [11], the target named is T11, Arabidopsis thaliana BIO3-BIO1 (BioDA) mutants (Arabidopsis thaliana, UniProt B0F481, Y511P).
T11 construct: with the predicted N-terminal mitochondrial transit peptide removed; 6xHis-tag (N); thrombin cleavage site (N); made in house; host or cells: E. coli BL21 (DE3) bioA
T11 sequence (B0F481 23-833 Y511P): as the sequence (B0F481 23-833 G700S) above, with Y489P, S678G counted along it
In short, it runs like this:
as §1

Assay [12] addresses T12, Arabidopsis thaliana BIO3-BIO1 (BioDA) mutants (Arabidopsis thaliana, UniProt B0F481, Y511W).
T12 construct: with the predicted N-terminal mitochondrial transit peptide removed; 6xHis-tag (N); thrombin cleavage site (N); made in house; host or cells: E. coli BL21 (DE3) bioA
In a few lines:
as §1

The structures appear in SMILES notation.

T5 sequence (B0F481 23-833 S509G): as the sequence (B0F481 23-833 G700S) above, with S487G, S678G counted along it
T7 sequence (B0F481 23-833 S509T): as the sequence (B0F481 23-833 G700S) above, with S487T, S678G counted along it
T6 sequence (B0F481 23-833 S509H): as the sequence (B0F481 23-833 G700S) above, with S487H, S678G counted along it
T4 sequence (B0F481 23-833 S509E): as the sequence (B0F481 23-833 G700S) above, with S487E, S678G counted along it
T12 sequence (B0F481 23-833 Y511W): as the sequence (B0F481 23-833 G700S) above, with Y489W, S678G counted along it

In the case of `CCOC(=O)c1nn(-c2ccc3c(c2)OC(F)(F)C(F)(F)O3)c2cccc(C(C)=O)c2c1=O` [Compound A, ethyl 5-acetyl-4-oxo-1-(2,2,3,3-tetrafluoro-1,4-benzodioxin-6-yl)cinnoline-3-carboxylate], the inhibition (usually the change of the read-out against control, counted positive when it falls) at 1 µM is 29% in assay [1]; 0% in assay [2]; 55% in [3]; 6% in assay [4]; 36% in assay [5]; 0% in assay [6]. Further, the inhibition at 1 µM in assay [7] came to 77%; in assay [8], 58%; in assay [9] it was 1%; in assay [10], 17%; in assay [11], 28%; in [12], 57%.

Regarding `CCn1c(-c2ccc(Cl)c(Cl)c2)c(C(=O)O)c(=O)c2cc(F)ccc21` [Compound M, 2-(3,4-dichlorophenyl)-1-ethyl-6-fluoro-4-oxo-quinoline-3-carboxylic acid], the inhibition at 0.2 µM stood at 60% in [1]; 8% in [2]; 20% in assay [3]; 40% in assay [4]; 28% in assay [5]; 23% in [6]. Moreover, the inhibition at 0.2 µM in [7] was found to be 9%; in [8] it was 57%; in [9], 4%; in assay [10], 21%; in [11], 48%; in assay [12] it was 25%. In addition, the inhibition at 1 µM turned out to be 83% in assay [1]; 0% in [2]; 44% in assay [3]; 73% in [4]; 47% in assay [5]; 82% in assay [6]. The inhibition at 1 µM in [7] is 69%; in [8] it was 77%; in [9] it was 43%; in assay [10], 81%; in assay [11], 89%; in assay [12] it was 67%. The inhibition at 5 µM came out at 95% in assay [1]; 9% in assay [2]; 78% in assay [3]; 93% in [4]; 71% in assay [5]; 98% in assay [6]. For the same molecule, the inhibition at 5 µM is 95% in [7]; 94% in assay [8]; 78% in [9]; 96% in assay [10]; 98% in [11]; 90% in assay [12].

With `CCn1c(Cn2ccc(C(F)(F)F)n2)cc(=O)c(C(=O)O)c1-c1ccc(Cl)c(Cl)c1` [Compound L, 2-(3,4-dichlorophenyl)-1-ethyl-4-oxo-6-[[3-(trifluoromethyl)pyrazol-1-yl]methyl]pyridine-3-carboxylic acid], in [1], the inhibition at 0.01 µM worked out at 31%, the inhibition at 0.075 µM turned out to be 30% and the inhibition at 0.5 µM stood at 54%. In assay [2], the inhibition at 0.01 µM came out at 9%, the inhibition at 0.075 µM stood at 3% and the inhibition at 0.5 µM came to 3%. Besides, in [3], the inhibition at 0.01 µM turned out to be 25%, the inhibition at 0.075 µM is 22% and the inhibition at 0.5 µM worked out at 85%.

Regarding `CCn1c(C)c(-c2ccc(F)cc2F)c(=O)c(C(=O)O)c1-c1ccc(Cl)c(Cl)c1` [Compound C, 2-(3,4-dichlorophenyl)-5-(2,4-difluorophenyl)-1-ethyl-6-methyl-4-oxo-pyridine-3-carboxylic acid], the inhibition at 0.2 µM in assay [1] turned out to be 69%; in [2] it was 9%; in [3], 23%; in assay [4], 57%; in assay [5], 20%; in [6], 20%. The inhibition at 0.2 µM in [7] was 5%; in [8], 51%; in [9], 0%; in [10] it was 36%; in assay [11], 53%; in assay [12], 41%. The inhibition at 1 µM came to 90% in assay [1]; 0% in assay [2]; 54% in [3]; 87% in [4]; 53% in assay [5]; 75% in assay [6]. Also, the inhibition at 1 µM came to 50% in assay [7]; 81% in [8]; 32% in assay [9]; 93% in assay [10]; 95% in assay [11]; 85% in assay [12]. Moreover, the inhibition at 5 µM was determined as 98% in assay [1]; 9% in assay [2]; 82% in assay [3]; 97% in [4]; 75% in assay [5]; 98% in [6]. The inhibition at 5 µM stood at 89% in [7]; 96% in [8]; 86% in [9]; 100% in [10]; 99% in assay [11]; 97% in [12].
